Source: ChEMBL document CHEMBL1147302, “Isolation and characterization of an antimalarial agent of the neem tree Azadirachta indica” (J Nat Prod, 1989)

Columns and labels:
Plasmodium falciparum [1] = assay: Antimalarial activity against Plasmodium falciparum after 96 hrs by [3H]hypoxanthine uptake; type: functional, organism-based
Plasmodium falciparum [2] = assay: Antimalarial activity against Plasmodium falciparum after 48 hrs by [3H]hypoxanthine uptake; type: functional, organism-based

- IC50 (Plasmodium falciparum [1]): 300 nM
- IC50 (Plasmodium falciparum [2]): 1000 nM
SMILES: CC(=O)O[C@@H]1C[C@H]2C(C)(C)C(=O)C=C[C@]2(C)[C@H]2CC[C@@]3(C)[C@H](c4ccoc4)OC(=O)[C@H]4O[C@]43[C@@]21C [GEDUNIN]
